From patent US9562035B2, “Benzamide derivative useful as FASN inhibitors for the treatment of cancer” (Janssen Pharmaceutica NV, priority 2013, dated 2017)

Experiments:
Format in all cases: cell-based
[1] = Cytotoxicity in HeLa cells (ATPlite); settings: human, in parallel to RSV assay, read-out: CC50 (Toxicity HeLa Cells)
Experimental: (§1) Black 96-well clear-bottom microtiter plates (Corning, Amsterdam, The Netherlands) were filled in duplicate using a customized robot system with serial 4-fold dilutions of test compound in a final volume of 50 μl culture medium [RPMI medium without phenol red, 10% FBS, 0.04% gentamycin (50 mg/mL) and 0.5% DMSO]. Then, 100 μl of a HeLa cell suspension (5×10^4 cells/mL) in culture medium was added to each well followed by the addition of 50 μl rgRSV224 (MOI=0.02) virus in culture medium using a multidrop dispenser (Thermo Scientific, Erembodegem, Belgium). rgRSV224 virus is an engineered virus that includes an additional GFP gene (HALLAK, L. K., et. al., “Glycosaminoglycan sulfation requirements for respiratory syncytial virus infection.” J. Virol., 2000, pp 10508-10513, Vol. […]). Medium, virus- and mock-infected controls were included in each test. Cells were incubated at 37° C. in a 5% CO2 atmosphere. Three days post-virus exposure, viral replication was quantified by measuring GFP expression in the cells by a MSM laser microscope (Tibotec, Beerse, Belgium). […] In parallel, test compounds were incubated for three days in a set of white 96-well microtitier plates (Corning) and the cytotoxicity of compounds in HeLa cells was determined by measuring the ATP content of the cells using the ATPlite kit (PerkinElmer, Zaventem, Belgium) according to the manufacturer's instructions. […]

rgRSV224 virus = assay: Antiviral Activity Against RSV (GFP expression in HeLa cells); settings: human respiratory syncytial virus, 72 h, read-out: EC50 (RSV Antiviral Activity)
Experimental: as §1

[2] = tested on: HCV 1b bicistronic subgenomic luciferase reporter replicon clone ET; assay: Antiviral Activity Against HCV (replicon cells, luciferase read-out); settings: Hepatitis C virus, 72 h; HCV 1b replicon clone ET, 3-day incubation, firefly luciferase read-out
Experimental: The anti-HCV activity of compounds was tested in cell culture with replicon cells generated using reagents from the Bartenschlager laboratory (the HCV 1b bicistronic subgenomic luciferase reporter replicon clone ET). The protocol included a 3-day incubation of 2500 replicon cells in a 384-well format in a nine-point 1:4 dilution series of the compound. Dose response curves were generated based on the firefly luciferase read-out.

Cc1ccc(C(=O)N2CCC(c3ccc(-c4cnn(C)c4)cc3)CC2)cc1NC(=O)c1ccc(NC(C)C)nc1 [Compound #32, 6-(isopropylamino)-N-(2-methyl-5-(4-(4-(1-methyl-1H-pyrazol-4-yl)phenyl)piperidine-1-carbonyl)phenyl)nicotinamide] showed a CC50 at 3 days [1] of over 25000 nM, an EC50 (rgRSV224 virus) of 17.7 nM and an EC50 [2] of 14.6 nM.
